details: acidic group

Structure (SMILES)	pKa
CCCSCC(=O)O	3.77
O=C1NC(=O)[C@@H]2CCCC[C@H]12	9.72
O=C(O)C1=C/C=C\C=C/C=C\1	4.4
[NH3+]CCC(=O)N[C@@H](Cc1c[nH+]c[nH]1)C(=O)O	2.63
O=C(O)[C@@H]1CC[C@H](C(=O)O)C1	4.24
C[NH+](C)CC[SeH]	4.74
Oc1onc2c1CC[NH2+]CC2	3.3
Cc1cccc(C)c1O	10.6
CC(=O)Nc1nnn[nH]1	4.53
CN(C)c1ncnc2[nH]ncc12	11
[NH3+]CCCCCCCC(=O)O	4.5
CC(C)(C)[NH2+]CC(=O)c1ccc(O)cc1	7.9
CC(=O)N(O)c1ccccc1	8.36
Cc1ccc(S)cc1	6.47
Oc1c(Cl)ccc(Cl)c1Cl	6.12
O/C(=C/[n+]1ccccc1)c1ccccc1	4.8
Cc1cccc(/C=N/O)n1	10
O=C(CCl)Nc1nnc(-c2ccccc2)s1	6.9
CCCP(=O)(O)CCC	3.33
O=C(O)Cn1ncnn1	2.12
Oc1ccc(O)c2ccccc12	9.25
C=C(C)C(=O)O	4.66
O=S(O)CCCCc1ccccc1	2.23
CC(C)(C)Cc1ccccc1O	10.7
Cn1nc(/N=N/O)nc1N	5.36
CCCCN(C(=O)c1cc([N+](=O)[O-])ccc1O)c1ccc(/N=N/c2ccc3c(c2)OCCOCCOCCOCCOCCO3)cc1	6.3

Structure (SMILES)	pKa
O=C([O-])[C@@H](NCC[NH2+][C@@H](C(=O)[O-])c1ccccc1[O-])c1ccccc1O	10.8
Nc1ccc(S(=O)(=O)Nc2nccs2)cc1/N=N/c1ccccc1	5.85
Cn1nc(/N=N/O)nc1Cl	5.17
C=C(C)[C@@H]1C[NH2+][C@H](C(=O)[O-])[C@@H]1CC(=O)O	4.58
Oc1ccc(/N=N/c2nccs2)c(O)c1	1.56
O=C1O[C@@H]([C@H](O)[C@@H](O)[C@@H](O)CO)C(O)=C1O	4.3
FC(F)(F)c1ncnc2nc[nH]c12	7.35
Cc1c([N+](=O)[O-])cc(Cl)c2nnn(O)c12	3.17
COC(=O)c1cc(O)c(O)c(O)c1C[NH+](C)C	6.8
O=C(O)c1ccnnc1	2.8
C[C@@H]1C[C@@H]1C(=O)O	5.03
COc1ccc(NC(C)=S)cc1	12
OCc1cccc(O)c1	9.83
Nc1ccc(C(=O)[O-])c2ncccc12	12.6
CC[NH2+]CCC(=O)O	3.61
CC(C)=C=CC(C)(C)C(=O)O	4.7
Oc1cc[n+](OCc2ccccc2)cc1	2.58
Cc1cc(S(=O)(=O)Nc2nccs2)ccc1N	7
C[N+](C)(C)CCS	7.98
Oc1ccccc1-c1ccccn1	10.6
Oc1ccc2cc(I)ccc2c1	9.23
Cc1cccc(C)c1NC(=S)c1ccccc1	10.8
CCCCCCCCCCCCCC(=O)N(O)c1ccccc1	9.05
Cc1cc(C)c(O)c([N+](=O)[O-])c1	7.98
O/N=C1C=C/C(=N\O)c2cccnc2/1	10
CC(C)C[C@H]([NH3+])C(=O)N[C@@H](Cc1c[nH]c[nH+]1)C(=O)O	2.76

Structure (SMILES)	pKa
Nc1c(C(=O)O)[nH+]cn1[C@H]1O[C@@H](CO)[C@H](O)[C@@H]1O	2.9
CC(C)(/C=C/C(=O)O)c1cc(Br)ccc1O	4.46
NC(=O)C(CCC(=O)O)c1ccccc1 (stereo not drawn)	4.64
c1ccc([P+](c2ccccc2)(c2ccccc2)C2c3ccccc3-c3ccccc32)cc1	8.99
S=CNc1ccccc1Cl	10
O=CCC=O	4.57
O/C(=C/c1cccnc1)c1ccccc1	8.79
O=C1NC(=O)C(=NO)C(=O)N1	4.58
C[NH+](C)CCCCCCCCCNC(=O)/C=N/O	8.99
COC(=O)c1ccc(O)cc1	8.34
COc1ccc(O)cc1	10.2
O=C1Nc2ccccc2C1=O	11.9
O/N=C(/NO)c1ccccc1	10.7
Cc1ccccc1OCC(=O)O	3.17
Sc1cc2ccccc2cn1	8.58
CCCCC#CC(=O)O	2.61
Cc1ncc(CO)c(C[NH3+])c1O	8.02
Cc1cc(C)c([N+](=O)[O-])c(C)c1O	8.98
O=c1ccn([C@@H]2C[C@@H](O)[C@H](CO)O2)c(=O)[nH]1	9.3
Oc1onc(-c2ccccc2)c1Br	2.3
CCP(=O)(O)CC	3.22
Nc1ccccc1B(O)O	9.23
Oc1ccccc1-c1ccccc1O	7.5
CC(C(N)=O)S(N)(=O)=O (stereo not drawn)	9.86

same assay, conditions: basic group

Structure (SMILES)	pKa
O=C1c2ncnc([O-])c2C(=O)c2nc[nH]c21	5.99
Cc1ccc2c(c1)c1c3n2CCN=C3CCC1	8.57
Cc1cccc(N)n1	7.4
Clc1cc(-c2ccccc2)nnc1NCCN1CCOCC1	6.64
CCc1cccnc1	5.57
NC(CC(=O)[O-])c1ccccn1 (stereo not drawn)	9.22
Cc1cc(C)n(-c2cc(C)n(C)n2)n1	2.19
CN[C@@H]1C[C@@H]1[NH2+]C	3.56
CC[NH+](CC)CCCC(C)Nc1ccnc2ccc(OC)cc12 (stereo not drawn)	8.7
CNc1nnc(-c2ccccc2)s1	2.8
C[C@]1(N)C[C@@H]1N	9.06
CC(=O)Nc1cccc2cc3ccccc3nc12	3
CNCCN(C)CCN	10.2
CN(C)/C=N/c1cccc(Br)c1	8.08
CC1(C)[C@@H](N)[C@@H]1N	8.96
Cc1csc2nccn12	5.36
[NH3+]CCN1CCOCC1	4.84
Nc1ccccc1C(=O)[O-]	4.87
Cc1ccn(C)c2nc3ccccc3c1-2	8.35
COc1cc(S(C)=O)ccc1-c1nc2ccccc2[nH]1 (stereo not drawn)	4.76
Cc1cc(C)c2ccc3c(C)cc(C)nc3c2n1	6.5
CCOc1ccc2[nH]c(C)nc2c1	6.22
Cc1ccc(C2CN2)cc1 (stereo not drawn)	6.76
CCC1CN1CC (stereo not drawn)	8.19
CCOCCN(C)c1ccccc1	4.8
CCCc1ccccc1N	4.36

Structure (SMILES)	pKa
CN(C)c1ncnc2[nH]ncc12	4.53
CCN(CC)CCCNc1c2ccccc2[nH+]c2ccccc12	8.53
COc1ccc(-c2cc3ccncc3[nH]2)c(OC)c1	8.29
Cc1cnc2ccccc2c1	5.15
N#CCc1cccnc1	3.78
Nc1ncnc2c1cnn2-c1ccccc1	3.89
CNN(C)C	6.64
Oc1onc2c1CCN(Cc1ccccc1)CC2	8
NCCCCCC[NH3+]	10.2
NCCCCC[NH3+]	9.73
Nc1cccc(-c2ccccc2)c1	4.28
CC1(C)SCNC1C(=O)[O-] (stereo not drawn)	6.34
O=C([O-])CSc1nc2cc3c(cc2[nH]1)CCCC3	5.2
CCc1nc(C)c[nH]1	8.5
c1ccc2cnccc2c1	5.36
CCN(CC)CC(=O)Nc1cc(C)cc(C)c1	8.01
Cc1cc(N)nc(N)n1	7.65
Cc1ccc2ccc(C)nc2c1	5.01
CN1CCCC2CCN=C21 (stereo not drawn)	11.5
C[Si](C)(C)CNC[Si](C)(C)C	11
Cc1ccnc(N)n1	4.2
C=Cc1ccccn1	4.92
Cc1cc(O)n(-c2nc(C)c(C)c([O-])n2)n1	10.3
[O-]c1ccnc2ccccc12	11.2
CC(=O)Nc1ccc2nc3ccccc3cc2c1	4.7
Nc1ccc(C(=O)[O-])c2ncccc12	8.46

Structure (SMILES)	pKa
NC1Cc2ccccc2C1	9.55
CC(C)(C)c1ccnc(C(C)(C)C)c1	6.7
Cc1cccc(C)c1NC(=O)CNCC(C)C	7.83
CCCN(CC(O)CC)CC(O)CC (stereo not drawn)	9
Brc1ccccn1	0.9
Nc1nc[nH+]c(N)c1N	1.47
Oc1ccccc1-c1ccccn1	4.2
CON(C)C	3.65
CC(=O)n1ccnc1Cc1ncc[nH]1	6.6
O/N=C1C=C/C(=N\O)c2cccnc2/1	3.7
CNCc1ccccc1	9.64
CN(C)c1nc2cc3c(cc2[nH]1)CCCC3	7.65
C1CNC1	11.3
Cn1cnc2cnc([O-])nc21	9.19
Clc1ccc(-c2ccc(Cl)cn2)nc1	3.96
Cc1cc([O-])nc2c1CCO2	8.44
Cc1cccc2[nH]cnc12	5.67
Cc1cc(N)ccc1[N+](=O)[O-]	1.64
Nc1ccc(N)c(N)c1	6.1
C[C@@H]1CC[C@@H]2CCCN21	12
c1ccc(-c2cccnc2)nc1	4.42
COc1ccc2c(c1O)CN(C)CCc1cc3c(cc1C(=O)C2)OCO3	9
CC(C)NCC(=O)c1ccc([O-])cc1	9.58
CN=C1C(C)(C)c2ccccc2C1(C)C	7
CC([Se-])CN (stereo not drawn)	10.8
CC(CN)C(=O)[O-] (stereo not drawn)	9.91

Structure (SMILES)	pKa
Nc1ncnc2c1cnn2CCO	4.29
CC(=O)n1cccn1	3.16
O/C(=C/c1cccnc1)c1ccccc1	5.84
Cc1cc2c(C)ccnc2c2ncccc12	5.71
CC(CC(c1ccccc1)c1ccccc1)N1CCOCC1 (stereo not drawn)	6.9
Nc1cc2ccccc2cc1[N+](=O)[O-]	1.48
Cc1ccccc1C(=NCCC[NH+](C)C)c1ccccc1C	4.3
OC[C@H]1CCN2CCC[C@@H]12	10.9
CN1CC=CC1c1cccnc1 (stereo not drawn)	7.04
Cc1ccc([N+](=O)[O-])c2c(NCCC[NH+](C)C)cc(-c3ccccc3)nc12	5.43
O=C([O-])c1ccccn1	5.32
C#CCNCC#C	6.08
CN1CCCN1C	6.67
O/N=C(/NO)c1ccccc1	3.8
N=c1c2ccccc2[nH]c2ccccc12	9.99
Sc1cc2ccccc2cn1	0.39
Cc1ncc(CO)c(C[NH3+])c1O	3.38
CC[C@H]1[C@H](CC2=N/C(=C/c3[nH]c(C[C@@H]4NC(=O)[C@H](CC)[C@H]4C)c(C)c3CCC(=O)[O-])C(CCC(=O)[O-])=C2C)NC(=O)[C@@H]1C	7.6
CCOCCn1c(CN2CCC[NH+](CCCCn3cc(C(=O)[O-])cn3)CC2)nc2ccccc21	4.8
CC[NH+](CC)CCNc1nc(C)nc(Nc2ccc(Cl)cc2)n1	4.02
Cc1cc(C)n(-c2cccc[nH+]2)n1	-2.4
Nc1ccccc1B(O)O	4.58
NCc1ccc(O)cc1	9.14
COc1ccc2c(c1)C([P+](c1ccccc1)(c1ccccc1)c1ccccc1)c1ccccc1-2 (stereo not drawn)	9.09
